Laboratory results reported in US20210400970A1, “COMPOSITIONS COMPRISING PYRIDINE CARBOXYLATE HERBICIDES AND MICROTUBULE ASSEMBLY INHIBITOR HERBICIDES” (priority 2018, published 2021).

Assays:
Assay type in all cases: in vivo
Settings in all cases: 20-22 d
[1] = tested on: Cirsium arvense (Canada thistle, CIRAR); test: Greenhouse post-emergence herbicidal effect on Canada thistle
Procedure: (§1) Seeds of the desired test plant species were planted in a 90:10% v/v (volume/volume) mixture of PRO-MIX® BX (Premier Tech Horticulture, Quakertown, Pa., USA) and PROFILE® GREENS GRADE™ (Profile Products LLC, Buffalo Grove, Ill., USA) planting mixture, which typically has a pH of 5.2 to 6.2 and an organic matter content of at least 50 percent, in plastic pots with a surface area of 103.2 square centimeters (cm^2). […] The plants were grown for 7-36 days (d) in a greenhouse with an approximate 14-hour (h) photoperiod which was maintained at about 23° C. during the day and 22° C. during the night. Nutrients and water were added on a regular basis and supplemental lighting was provided with overhead metal halide 1000-Watt lamps as necessary. The plants were employed for testing when they reached the second or third true leaf stage.
(§2) Emulsifiable concentrates of each of each pyridine carboxylate herbicide (Compound A or Compound B) were prepared at 100 grams acid equivalent per liter (g ae/L). The emulsifiable concentrates also included a safener, cloquintocet-mexyl, at 120 grams active ingredient per liter (g ai/L). An aliquot of each emulsifiable concentrate was placed in a 25 mL glass vial and diluted with an aqueous mixture of 1.25% (v/v) ACTIROB® B esterified rapeseed oil (Bayer Crop Science, Research Triangle Park, NC, USA) or MSO® Concentrate with LECI-TECH® methylated soybean oil (Loveland Products, Loveland, Colo., USA) to obtain concentrated stock solutions at the highest application rate for each herbicide, based upon a 12 milliliter (mL) application volume at a rate of 187 liters per hectare (L/ha). The concentrated stock solutions were further diluted with an aqueous mixture of 1.25% v/v ACTIROB® B or MSO® Concentrate with LECI-TECH® to obtain stock solutions at reduced application rates for each herbicide. Spray solutions of the herbicide combinations (Compound A or Compound B plus the MAI herbicide) were prepared by adding weighed amounts or aliquots of the MAI herbicide to the stock solutions of Compound A or Compound B to form 12-mL spray solutions in two-way combinations.
(§3) The spray solutions were applied to the plant material with an overhead Mandel track sprayer equipped with 8002E nozzles calibrated to deliver 187 L/ha over an application area of 0.503 square meters (m^2) at a spray height of 18 inches (43 centimeters (cm)) above the average plant canopy. Control plants were sprayed in the same manner with the solvent blank. All pyridine carboxylate herbicide (component a) application rates are given as “g ae/ha” and all MAI herbicide (component b) application rates are given as “g ai/ha.”
(§4) The treated plants and control plants were placed in a greenhouse as described above and watered by sub-irrigation to prevent wash-off of the test compounds. After 20-22 d, the condition of the test plants as compared with that of the control plants was determined visually and scored on a scale of 0 to 100 percent where 0 corresponds to no injury and 100 corresponds to complete kill.

[2] = tested on: Setaria faberi (giant foxtail, SETFA); test: Greenhouse post-emergence herbicidal effect on giant foxtail
Procedure: as §1, §2, §3, §4

[3] = tested on: Glycine max (soybean, GLXMA); test: Greenhouse post-emergence herbicidal effect on volunteer soybean
Procedure: as §1, §2, §3, §4

[4] = tested on: Brassica napus (spring rape, BRSNN); test: Greenhouse post-emergence herbicidal effect on spring rape
Procedure: as §1, §2, §3, §4

[5] = tested on: Ipomoea hederacea (ivyleaf morningglory, IPOHE); test: Greenhouse post-emergence herbicidal effect on ivyleaf morningglory
Procedure: as §1, §2, §3, §4

[6] = tested on: Abutilon theophrasti (velvetleaf, ABUTH); test: Greenhouse post-emergence herbicidal effect on velvetleaf
Procedure: as §1, §2
(§5) The spray solutions were applied to the plant material with an overhead Mandel track sprayer equipped with 8002E nozzles calibrated to deliver 187 L/ha over an application area of 0.503 square meters (m^2) at a spray height of 18 inches (43 centimeters (cm)) above the average plant canopy. […]
as §4

[7] = tested on: Rumex obtusifolius (broad-leaf dock, RUMOB); test: Greenhouse post-emergence herbicidal effect on broad-leaf dock
Procedure: as §1, §2, §3, §4

[8] = tested on: Chenopodium album L. (common lambsquarters, CHEAL); test: Greenhouse post-emergence herbicidal effect on common lambsquarters
Procedure: as §1, §2, §5, §4

[9] = tested on: Viola tricolor (wild pansy, VIOTR); test: Greenhouse post-emergence herbicidal effect on wild pansy
Procedure: as §1, §2, §3, §4

[10] = tested on: Echinochloa crus-galli (barnyard grass, ECHCG); test: Greenhouse post-emergence herbicidal effect on barnyard grass
Procedure: as §1, §2, §3, §4

[11] = tested on: Lolium multiflorum (Italian ryegrass, LOLMU); test: Greenhouse post-emergence herbicidal effect on Italian ryegrass
Procedure: as §1, §2, §3, §4

[12] = tested on: Kochia scoparia (kochia, KCHSC); test: Greenhouse post-emergence herbicidal effect on kochia
Procedure: as §1, §2, §3, §4

[13] = tested on: Digitaria sanguinalis (large crabgrass, DIGSA); test: Greenhouse post-emergence herbicidal effect on large crabgrass
Procedure: as §1, §2, §3, §4

[14] = tested on: Polygonum convolvulus (wild buckwheat, POLCO); test: Greenhouse post-emergence herbicidal effect on wild buckwheat
Procedure: as §1, §2, §5, §4

[15] = MAI herbicide alone, 280 g ai/ha
[16] = MAI herbicide alone, 560 g ai/ha

SMILES: N#CCOC(=O)c1nc(-c2ccc3cc[nH]c3c2F)c(F)c(N)c1Cl [Compound A, cyanomethyl 4-amino-3-chloro-5-fluoro-6-(7-fluoro-1H-indol-6-yl)pyridine-2-carboxylate]
- Obs (% visual injury) ([1]; Compound A alone, 7.5 g ae/ha): 23%
- Obs (% visual injury) ([1]; Compound A alone, 10 g ae/ha): 20%
- Obs (% visual injury) ([2]; Compound A alone, 7.5 g ae/ha): 70%
- Obs (% visual injury) ([2]; Compound A alone, 10 g ae/ha): 70%
- Obs (% visual injury) ([3]; Compound A alone, 7.5 g ae/ha): 93%
- Obs (% visual injury) ([3]; Compound A alone, 10 g ae/ha): 95%
- Obs (% visual injury) ([4]; Compound A alone, 7.5 g ae/ha): 73%
- Obs (% visual injury) ([4]; Compound A alone, 10 g ae/ha): 83%
- Obs (% visual injury) ([5]; Compound A alone, 7.5 g ae/ha): 3%
- Obs (% visual injury) ([5]; Compound A alone, 10 g ae/ha): 8%
- Obs (% visual injury) ([6]; Compound A alone, 7.5 g ae/ha): 68%
- Obs (% visual injury) ([6]; Compound A alone, 10 g ae/ha): 78%
- Obs (% visual injury) ([7]; Compound A alone, 7.5 g ae/ha): 8%
- Obs (% visual injury) ([7]; Compound A alone, 10 g ae/ha): 10%
- Obs (% visual injury) ([8]; Compound A alone, 7.5 g ae/ha): 97%
- Obs (% visual injury) ([8]; Compound A alone, 10 g ae/ha): 93%
- Obs (% visual injury) ([9]; Compound A alone, 7.5 g ae/ha): 10%
- Obs (% visual injury) ([9]; Compound A alone, 10 g ae/ha): 18%
- Obs (% visual injury) ([10]; Compound A alone, 7.5 g ae/ha): 73%
- Obs (% visual injury) ([10]; Compound A alone, 10 g ae/ha): 78%
- Obs (% visual injury) ([11]; Compound A alone, 7.5 g ae/ha): 0%
- Obs (% visual injury) ([11]; Compound A alone, 10 g ae/ha): 0%
- Obs (% visual injury) ([12]; Compound A alone, 7.5 g ae/ha): 60%
- Obs (% visual injury) ([12]; Compound A alone, 10 g ae/ha): 65%
- Obs (% visual injury) ([13]; Compound A alone, 7.5 g ae/ha): 45%
- Obs (% visual injury) ([13]; Compound A alone, 10 g ae/ha): 25%
- Obs (% visual injury) ([14]; Compound A alone, 7.5 g ae/ha): 75%
- Obs (% visual injury) ([14]; Compound A alone, 10 g ae/ha): 70%

SMILES: CSC(=O)c1c(C(F)F)nc(C(F)(F)F)c(C(=O)SC)c1CC(C)C [Dithiopyr]
- Obs (% visual injury) [1, 15]: 0%
- Obs (% visual injury) [2, 15]: 0%
- Obs (% visual injury) [3, 15]: 13%
- Obs (% visual injury) [4, 15]: 58%
- Obs (% visual injury) [5, 15]: 30%
- Obs (% visual injury) [6, 15]: 40%
- Obs (% visual injury) [7, 15]: 5%
- Obs (% visual injury) [8, 15]: 10%
- Obs (% visual injury) [9, 15]: 0%
- Obs (% visual injury) [10, 15]: 0%
- Obs (% visual injury) [11, 15]: 0%
- Obs (% visual injury) [12, 15]: 15%
- Obs (% visual injury) [13, 15]: 33%
- Obs (% visual injury) [14, 15]: 0%

SMILES: CCC(CC)Nc1c([N+](=O)[O-])cc(C)c(C)c1[N+](=O)[O-] [Pendimethalin]
- Obs (% visual injury) [1, 16]: 5%
- Obs (% visual injury) [2, 16]: 0%
- Obs (% visual injury) [3, 16]: 23%
- Obs (% visual injury) [4, 16]: 15%
- Obs (% visual injury) [5, 16]: 3%
- Obs (% visual injury) [7, 16]: 0%
- Obs (% visual injury) [9, 16]: 0%
- Obs (% visual injury) [10, 16]: 0%
- Obs (% visual injury) [11, 16]: 0%
- Obs (% visual injury) [12, 16]: 18%
- Obs (% visual injury) [13, 16]: 15%
- Obs (% visual injury) [14, 16]: 0%

SMILES: C#CC(C)(C)NC(=O)c1cc(Cl)cc(Cl)c1 [Propyzamide]
- Obs (% visual injury) [1, 15]: 0%
- Obs (% visual injury) [2, 15]: 0%
- Obs (% visual injury) [3, 15]: 23%
- Obs (% visual injury) [4, 15]: 0%
- Obs (% visual injury) [5, 15]: 3%
- Obs (% visual injury) [6, 15]: 5%
- Obs (% visual injury) [7, 15]: 0%
- Obs (% visual injury) [8, 15]: 0%
- Obs (% visual injury) [9, 15]: 0%
- Obs (% visual injury) [10, 15]: 0%
- Obs (% visual injury) [11, 15]: 0%
- Obs (% visual injury) [12, 15]: 18%
- Obs (% visual injury) [13, 15]: 0%
